What was measured:
Type in all cases: biochemical
[1] = target: T1, KRAS G12D (Homo sapiens, UniProt P01116, G12D); experiment: HTRF KRAS-SOS1 interaction assay, KRAS G12D; conditions: binned ≤2 μM / >2 μM, read-out: Inhibition of KRAS G12D (IC50)
T1 construct: made in house; host or cells: E. coli, e.g. BL21 (DE3)
Procedure, shortened: (§1)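 Read-out: HTRF ratio 665/620 nm after ≥10 min incubation of compound with GST-KRAS/anti-GST-Eu and His-hSOS1/anti-6His-XL665. Duplicate dose series, 10 μM down to 0.01 μM. Buffer HEPES pH 7.4, NaCl, DTT, BSA, Igepal.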

[2] = target: T2, KRAS G12S (Homo sapiens, UniProt P01116, G12S); experiment: HTRF KRAS-SOS1 interaction assay, KRAS G12S; conditions: binned ≤2 μM / >2 μM, read-out: Inhibition of KRAS G12S (IC50)
T2 construct: made in house; host or cells: E. coli, e.g. BL21 (DE3)
T2 sequence (P01116 1-188 isoform P01116-2 G12S): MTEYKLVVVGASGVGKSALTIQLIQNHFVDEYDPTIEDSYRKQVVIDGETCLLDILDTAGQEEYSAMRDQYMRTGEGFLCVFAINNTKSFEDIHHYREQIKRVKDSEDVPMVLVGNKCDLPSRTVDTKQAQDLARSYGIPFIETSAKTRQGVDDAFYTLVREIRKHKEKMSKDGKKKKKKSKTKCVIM
Procedure, shortened: as §1

[3] = target: T3, KRAS WT (Homo sapiens, UniProt P01116); experiment: HTRF KRAS-SOS1 interaction assay, wildtype KRAS; conditions: binned ≤2 μM / >2 μM, read-out: Inhibition of KRAS WT (IC50)
T3 construct: made in house; host or cells: E. coli, e.g. BL21 (DE3)
T3 sequence (P01116 1-188 isoform P01116-2): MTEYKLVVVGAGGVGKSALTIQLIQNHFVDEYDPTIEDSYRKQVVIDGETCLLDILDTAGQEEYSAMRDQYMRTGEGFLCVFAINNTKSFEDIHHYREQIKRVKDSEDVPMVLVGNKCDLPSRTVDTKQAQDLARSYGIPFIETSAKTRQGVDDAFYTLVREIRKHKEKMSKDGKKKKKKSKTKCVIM
Procedure, shortened: as §1

[4] = target: T4, KRAS G12V (Homo sapiens, UniProt P01116, G12V); experiment: HTRF KRAS-SOS1 interaction assay, KRAS G12V; conditions: binned ≤2 μM / >2 μM, read-out: Inhibition of KRAS G12V (IC50)
T4 construct: made in house; host or cells: E. coli, e.g. BL21 (DE3)
T4 sequence (P01116 1-188 isoform P01116-2 G12V): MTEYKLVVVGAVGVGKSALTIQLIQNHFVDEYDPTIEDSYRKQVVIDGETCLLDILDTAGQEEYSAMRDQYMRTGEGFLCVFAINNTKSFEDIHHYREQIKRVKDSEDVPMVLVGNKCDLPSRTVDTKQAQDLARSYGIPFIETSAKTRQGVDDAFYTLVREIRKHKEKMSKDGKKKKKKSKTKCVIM
Procedure, shortened: as §1

T1 sequence (P01116 1-188 isoform P01116-2 G12D): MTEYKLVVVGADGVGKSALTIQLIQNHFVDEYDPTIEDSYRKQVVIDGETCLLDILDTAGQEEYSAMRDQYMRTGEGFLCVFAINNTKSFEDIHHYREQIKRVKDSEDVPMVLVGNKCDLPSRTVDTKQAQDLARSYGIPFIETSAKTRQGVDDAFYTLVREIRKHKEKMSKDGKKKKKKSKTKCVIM

IC50 [1] | IC50 [2] | IC50 [3] | IC50 [4] | Structure (SMILES)
≤ 2 µM | ≤ 2 µM | ≤ 2 µM | ≤ 2 µM | N#Cc1c(N)sc2c(F)ccc(-c3c(Cl)c4c5c(nc(OC[C@@]67CCCN6C[C@H](F)C7)nc5c3F)N(C(/C=C/F)c3cccnc3N)CCO4)c12 (single isomer, unassigned) [Compound 708]
≤ 2 µM | ≤ 2 µM | ≤ 2 µM | ≤ 2 µM | C[C@H](c1cccnc1N)N1C[C@H](C)Oc2c(C(F)(F)F)c(-c3ccc(F)c4sc(N)c(C#N)c34)c(F)c3nc(OC[C@@]45CCCN4C[C@H](F)C5)nc1c23 (single isomer, unassigned) [Compound 697]
≤ 2 µM | ≤ 2 µM | ≤ 2 µM | ≤ 2 µM | COC[C@H](c1cccnc1N)N1CCOc2c(C(F)(F)F)c(-c3ccc(F)c4sc(N)c(C#N)c34)c(F)c3nc(OC[C@@]45CCCN4C[C@H](F)C5)nc1c23 [Compound 684, 2-amino-4-(4-((S)-1-(2-aminopyridin-3-yl)-2-methoxyethyl)-10-fluoro-2-(((2R,7aS)-2-fluorotetrahydro-1H-pyrrolizin-7a(5H)-yl)methoxy)-8-(trifluoromethyl)-5,6-dihydro-4H-[1,4]oxazepino[5,6,7-de]quinazolin-9-yl)-7-fluorobenzo[b]thiophene-3-carbonitrile]
≤ 2 µM | ≤ 2 µM | ≤ 2 µM | ≤ 2 µM | CNc1sc2c(F)ccc(-c3c(C(F)(F)F)c4c5c(nc(OC[C@@]67CCCN6C[C@H](F)C7)nc5c3F)N([C@H](CCC3CCOCC3)c3cccnc3N)CCO4)c2c1C#N [Compound 709, 4-(4-((R)-1-(2-aminopyridin-3-yl)-3-(tetrahydro-2H-pyran-4-yl)propyl)-10-fluoro-2-(((2R,7aS)-2-fluorotetrahydro-1H-pyrrolizin-7a(5H)-yl)methoxy)-8-(trifluoromethyl)-5,6-dihydro-4H-[1,4]oxazepino[5,6,7-de]quinazolin-9-yl)-7-fluoro-2-(methylamino)benzo[b]thiophene-3-carbonitrile]
> 2 µM | > 2 µM | > 2 µM | > 2 µM | N#Cc1c(N)sc2c(F)ccc(-c3c(C(F)(F)F)c4c5c(nc(OC[C@@]67CCCN6C[C@H](F)C7)nc5c3F)N([C@H](CC3CCC3)c3cccnc3N)CCO4)c12 (single isomer, unassigned) [Compound 902]
≤ 2 µM | ≤ 2 µM | ≤ 2 µM | ≤ 2 µM | C[C@@H]1COCCN1CC1(COc2nc3c4c(c(C(F)(F)F)c(-c5ccc(F)c6sc(N)c(C#N)c56)c(F)c4n2)OCCN3[C@H](C)c2cccnc2N)CC1 (single isomer, unassigned) [Compound 608]
≤ 2 µM | ≤ 2 µM | ≤ 2 µM | ≤ 2 µM | Cc1c(F)c(N)cc(-c2nc3c4c(nc(OC[C@@]56CCCN5C[C@H](F)C6)nc4c2F)N([C@H](C)c2cccnc2N)CCO3)c1C(F)(F)F (single isomer, unassigned) [Compound 765]
≤ 2 µM | ≤ 2 µM | ≤ 2 µM | ≤ 2 µM | C[C@H](c1cc(C2CC2)cnc1N)N1CCOc2c(Cl)c(-c3ccc(F)c4sc(N)c(C#N)c34)c(F)c3nc(OC[C@@]45CCCN4C[C@H](F)C5)nc1c23 [Compound 738, 2-amino-4-(4-((R)-1-(2-amino-5-cyclopropylpyridin-3-yl)ethyl)-8-chloro-10-fluoro-2-(((2R,7aS)-2-fluorotetrahydro-1H-pyrrolizin-7a(5H)-yl)methoxy)-5,6-dihydro-4H-[1,4]oxazepino[5,6,7-de]quinazolin-9-yl)-7-fluorobenzo[b]thiophene-3-carbonitrile]
≤ 2 µM | ≤ 2 µM | ≤ 2 µM | ≤ 2 µM | C[C@H](c1cccnc1N)N1CCOc2c(C3CC3)c(-c3ccc(F)c4sc(N)c(C#N)c34)c(F)c3nc(OC[C@@]45CCCN4C[C@H](F)C5)nc1c23 (single isomer, unassigned) [Compound 727]
≤ 2 µM | ≤ 2 µM | ≤ 2 µM | ≤ 2 µM | C[C@H](Oc1nc2c3c(nc(-c4ccc(F)c5sc(N)c(C#N)c45)c(F)c3n1)OCCN2[C@H](C)c1cccnc1N)C1CCCN1C (single isomer, unassigned) [Compound 670]
≤ 2 µM | ≤ 2 µM | ≤ 2 µM | ≤ 2 µM | C#Cc1c(F)ccc2cc(O)cc(-c3nc4c5c(nc(OC[C@@H]6CCCN6C)nc5c3F)N(C(C)c3cccnc3N)CCO4)c12 (mixture of isomers) [Compound 722, 4-(10-(1-(2-aminopyridin-3-yl)ethyl)-4-fluoro-2-(((S)-1-methylpyrrolidin-2-yl)methoxy)-9,10-dihydro-8H-7-oxa-1,3,6,10-tetraazacyclohepta[de]naphthalen-5-yl)-5-ethynyl-6-fluoronaphthalen-2-ol]
≤ 2 µM | ≤ 2 µM | ≤ 2 µM | ≤ 2 µM | CCON=C1CN2CCC[C@@]2(COc2nc3c4c(c(Cl)c(-c5ccc(F)c6sc(N)c(C#N)c56)c(F)c4n2)OCCN3[C@H](C)c2cccnc2N)C1 (single isomer, unassigned) [Compound 700]
≤ 2 µM | ≤ 2 µM | ≤ 2 µM | ≤ 2 µM | CCO/N=C(\C)CCC[C@H](c1cccnc1N)N1CCOc2c(C(F)(F)F)c(-c3ccc(F)c4sc(N)c(C#N)c34)c(F)c3nc(OC[C@@]45CCCN4C[C@H](F)C5)nc1c23 [Compound 854, 2-amino-4-(4-((R,E)-1-(2-aminopyridin-3-yl)-5-(ethoxyimino)hexyl)-10-fluoro-2-(((2R,7aS)-2-fluorotetrahydro-1H-pyrrolizin-7a(5H)-yl)methoxy)-8-(trifluoromethyl)-5,6-dihydro-4H-[1,4]oxazepino[5,6,7-de]quinazolin-9-yl)-7-fluorobenzo[b]thiophene-3-carbonitrile]
≤ 2 µM | ≤ 2 µM | ≤ 2 µM | ≤ 2 µM | CC(Oc1nc2c3c(c(Cl)c(-c4ccc(F)c5sc(N)c(C#N)c45)c(F)c3n1)OCCN2[C@H](C)c1cccnc1N)[C@@H]1CC(F)(F)CN1C (single isomer, unassigned) [Compound 919]
≤ 2 µM | ≤ 2 µM | ≤ 2 µM | ≤ 2 µM | N#Cc1c(N)sc2c(F)ccc(-c3c(C(F)(F)F)c4c5c(nc(OC[C@@]67CCCN6[C@H](COc6nccnc6C(F)F)CC7)nc5c3F)N([C@@H](c3cccnc3N)C(F)F)CCO4)c12 (single isomer, unassigned) [Compound 605]
≤ 2 µM | ≤ 2 µM | ≤ 2 µM | ≤ 2 µM | C[C@H](c1cccnc1C(F)F)N1CCOc2c(C(F)(F)F)c(-c3ccc(F)c4sc(N)c(C#N)c34)c(F)c3nc(OC[C@@]45CCCN4C[C@H](F)C5)nc1c23 [Compound 747, 2-amino-4-(4-((R)-1-(2-(difluoromethyl)pyridin-3-yl)ethyl)-10-fluoro-2-(((2R,7aS)-2-fluorotetrahydro-1H-pyrrolizin-7a(5H)-yl)methoxy)-8-(trifluoromethyl)-5,6-dihydro-4H-[1,4]oxazepino[5,6,7-de]quinazolin-9-yl)-7-fluorobenzo[b]thiophene-3-carbonitrile]

Source: patent US12668600B2 (Kumquat Biosciences Inc., priority 2023, dated 2026)
